SMILES strings stand for the structures. Some results are limits rather than exact numbers.

Data set [1] relates to Leukosis cells of P-388 mouse. As to the kind of experiment: Antitumor Effect Test (P-388 leukemia grafted into the abdomen of mice, ratio of survival days T/C). Format: in vivo. The following applies: dosed into the abdomen successively for 5 days, P-388 in CDF1 or BDF1 mouse. An excerpt:
[Antitumor Effect Test] Leukosis cells of P-388 mouse of 1×10^6 /mouse were grafted into the abdomen of CDF1 or BDF1 mouse, and the fixed quantity of the compound of this invention was successively dosed into the abdomen for 5 days. Each 6 mice per dose level as test groups and 30~33 mice as control groups were used. [formula]

Data set [2] is described as follows: Acute Toxicity Test (LD50). The settings on record: in vivo.
Where [3] appears, read: Mus musculus, P388, ip, 120 h, 30 mg/kg.

As for `O=C(Nc1cccs1)n1cc(F)c(=O)[nH]c1=O` [Experiment 1], the “T/C (ratio of survival days)” value in data set [1] (30 mg/kg) came to 129%. Besides, the response vs control in vivo at 30 mg/kg in data set [1] (setting [3]) amounted to 129%. Besides, the response vs control in vivo at 60 mg/kg in data set [1] (Mus musculus, P388, ip, 120 h) came out at 138%. Further, the LD50 (as a rule, the dose expected to kill half of the subjects tested) in data set [2] is above 240 mg/kg.
On to `O=C(Nc1ccc[n+]([O-])c1)n1cc(F)c(=O)[nH]c1=O` [Experiment 2], for which, in data set [1] (Mus musculus, P388, ip, 120 h), the response vs control in vivo at 15 mg/kg stood at 127% and the response vs control in vivo at 60 mg/kg stood at 166%. Also, in data set [1] (setting [3]), the response vs control in vivo at 30 mg/kg came out at 149%. Also, the LD50 in data set [2] was determined as 240 mg/kg.
For the compound `O=C(Nc1c[nH]c2ccccc12)n1cc(F)c(=O)[nH]c1=O` [Experiment 3], the response vs control in vivo at 30 mg/kg in data set [1] (setting [3]) amounted to 123%. In addition, in data set [1] (Mus musculus, P388, ip, 120 h), the response vs control in vivo at 60 mg/kg was found to be 135%, the response vs control in vivo at 120 mg/kg is 136% and the response vs control in vivo at 400 mg/kg is 153%. The LD50 in data set [2] was above 400 mg/kg.
In the case of `O=C(NCc1c[nH]c2ccccc12)n1cc(F)c(=O)[nH]c1=O` [Experiment 4], the response vs control in vivo at 30 mg/kg in data set [1] (setting [3]) is 117%. Also, in data set [1] (Mus musculus, P388, ip, 120 h), the response vs control in vivo at 60 mg/kg stood at 115%, the response vs control in vivo at 120 mg/kg worked out at 118% and the response vs control in vivo at 400 mg/kg is 128%. The LD50 in data set [2] was above 400 mg/kg.
With `O=C(NCNC(=O)n1cc(F)c(=O)[nH]c1=O)c1ccccc1` [Experiment 13], the response vs control in vivo at 30 mg/kg in data set [1] (setting [3]) was 117%. Further, in data set [1] (Mus musculus, P388, ip, 120 h), the response vs control in vivo at 60 mg/kg is 132% and the response vs control in vivo at 120 mg/kg turned out to be 147%. The LD50 in data set [2] worked out at 240 mg/kg.
Consider `O=C(NCC[n+]1ccccc1)n1cc(F)c(=O)[nH]c1=O` [Experiment 14, 5-Fluoro-3,4-dihydro-2,4-dioxo-N-[2-(1-pyridino)ethyl]-1(2H-pyrimidinecarboxamide chloride], for which, in data set [1] (Mus musculus, P388, ip, 120 h), the response vs control in vivo at 15 mg/kg came to 169% and the response vs control in vivo at 60 mg/kg amounted to 215%. For the same compound, the response vs control in vivo at 30 mg/kg in data set [1] (setting [3]) is 171%. Further, the LD50 in data set [2] amounted to 120 mg/kg.
Regarding `O=C(NCCCCC[n+]1ccccc1)n1cc(F)c(=O)[nH]c1=O` [Experiment 16, 5-Fluoro-3,4-dihydro-2,4-dioxo-N-[5-(1-pyridinio)pentyl]-1(2H-pyrimidinecarboxamide bromide], in data set [1] (Mus musculus, P388, ip, 120 h), the response vs control in vivo at 7.5 mg/kg is 112% and the response vs control in vivo at 15 mg/kg turned out to be 120%. The response vs control in vivo at 30 mg/kg in data set [1] (setting [3]) was determined as 120%. Moreover, the LD50 in data set [2] stood at 60 mg/kg.
With `O=C(NCCC[n+]1ccccc1)n1cc(F)c(=O)[nH]c1=O` [Experiment 17, 5-Fluoro-3,4-dihydro-2,4-dioxo-N-[3-(1-pyridinio)propyl]-1(2H-pyrimidinecarboxamide chloride], in data set [1] (setting [3]), the response vs control in vivo at 30 mg/kg amounted to 130%. For the same compound, in data set [1] (Mus musculus, P388, ip, 120 h), the response vs control in vivo at 60 mg/kg amounted to 138%. Further, the LD50 in data set [2] worked out at 240 mg/kg.
Take `O=C(NCCCCCCNC(=O)n1cc(F)c(=O)[nH]c1=O)Nc1cccnc1` [Experiment 18]: the response vs control in vivo at 0.47 mg/kg in data set [1] (Mus musculus, P388, ip, 120 h, 0.47 mg/kg) was found to be 110%. The response vs control in vivo at 0.94 mg/kg in data set [1] (Mus musculus, P388, ip, 120 h, 0.94 mg/kg) turned out to be 115%. In addition, the response vs control in vivo at 1.87 mg/kg in data set [1] (Mus musculus, P388, ip, 120 h, 1.87 mg/kg) is 124%. The response vs control in vivo at 3.75 mg/kg in data set [1] (Mus musculus, P388, ip, 120 h, 3.75 mg/kg) worked out at 131%. Moreover, in data set [1] (Mus musculus, P388, ip, 120 h), the response vs control in vivo at 7.5 mg/kg stood at 138% and the response vs control in vivo at 15 mg/kg turned out to be 139%. The compound further had an LD50 in data set [2] above 30 mg/kg.
Regarding `O=C(NCCCCCCNC(=O)n1cc(F)c(=O)[nH]c1=O)Nc1ccccn1` [Experiment 19], in data set [1] (Mus musculus, P388, ip, 120 h), the response vs control in vivo at 60 mg/kg was found to be 154% and the response vs control in vivo at 120 mg/kg was 164%. In data set [2], this compound yielded an LD50 above 240 mg/kg.
Regarding `NS(=O)(=O)c1ccc(NC(=O)NCCCCCCNC(=O)n2cc(F)c(=O)[nH]c2=O)cc1` [Experiment 20], the response vs control in vivo at 30 mg/kg in data set [1] (setting [3]) turned out to be 95%. Moreover, in data set [1] (Mus musculus, P388, ip, 120 h), the response vs control in vivo at 60 mg/kg was 110%, the response vs control in vivo at 120 mg/kg came out at 111% and the response vs control in vivo at 240 mg/kg was 112%. In addition, the LD50 in data set [2] is above 240 mg/kg.
As for `CN(C)CCCNC(=O)NCCCCCCNC(=O)n1cc(F)c(=O)[nH]c1=O` [Experiment 21], in data set [1] (Mus musculus, P388, ip, 120 h), the response vs control in vivo at 15 mg/kg amounted to 120% and the response vs control in vivo at 60 mg/kg was found to be 120%. In data set [1] (setting [3]), the response vs control in vivo at 30 mg/kg amounted to 142%. In data set [2], this compound gave an LD50 of 120 mg/kg.
On to `O=C(NCCCCCCNC(=O)n1cc(F)c(=O)[nH]c1=O)NNC(=O)c1cccnc1` [Experiment 22], for which the response vs control in vivo at 30 mg/kg in data set [1] (setting [3]) was determined as 113%. Moreover, in data set [1] (Mus musculus, P388, ip, 120 h), the response vs control in vivo at 60 mg/kg was determined as 113%, the response vs control in vivo at 120 mg/kg came out at 128% and the response vs control in vivo at 400 mg/kg stood at 127%. For the same compound, the LD50 in data set [2] is above 400 mg/kg.
Take `O=C(NCCCCCCNC(=O)n1cc(F)c(=O)[nH]c1=O)NNC(=O)c1ccncc1` [Experiment 23]: in data set [1] (setting [3]), the response vs control in vivo at 30 mg/kg stood at 109%. Moreover, in data set [1] (Mus musculus, P388, ip, 120 h), the response vs control in vivo at 60 mg/kg was found to be 119%, the response vs control in vivo at 120 mg/kg was 124% and the response vs control in vivo at 240 mg/kg came to 138%. The LD50 in data set [2] was above 240 mg/kg.

The values are drawn from US4792607A, “5-fluoro-3,4-dihydro-2,4-dioxo-N-(3-indolyl)-1(2H)-pyrimidinecarboxamides” (Chisso Corporation, priority 1986, dated 1988).
